According to the NIST ThermoML archive (doi:10.1016/j.fluid.2013.07.002):
± gives the expanded uncertainty stated by the source.

Details: Crystal; visual observation

CCCCCCCCCCCCCCCCCCO [1-octadecanol]
Normal melting temperature: 58 ± 0.39 °C
